Source: article PMC9095466 (Nature, 2022)
Several values for one entry are separate records, joined by “and”; a condition that tells them apart may be missing. Identical values can stand only once. Like-named read-outs stand apart in the source and are kept apart here.

Columns and labels:
Recombinant human furin = biological target: T1, Recombinant human furin (Homo sapiens, UniProt P09958); assay: Protease selectivity, Ki on recombinant protease; format: biochemical
T1 construct: purchased Bio-Techne
T1 sequence (P09958 108-794): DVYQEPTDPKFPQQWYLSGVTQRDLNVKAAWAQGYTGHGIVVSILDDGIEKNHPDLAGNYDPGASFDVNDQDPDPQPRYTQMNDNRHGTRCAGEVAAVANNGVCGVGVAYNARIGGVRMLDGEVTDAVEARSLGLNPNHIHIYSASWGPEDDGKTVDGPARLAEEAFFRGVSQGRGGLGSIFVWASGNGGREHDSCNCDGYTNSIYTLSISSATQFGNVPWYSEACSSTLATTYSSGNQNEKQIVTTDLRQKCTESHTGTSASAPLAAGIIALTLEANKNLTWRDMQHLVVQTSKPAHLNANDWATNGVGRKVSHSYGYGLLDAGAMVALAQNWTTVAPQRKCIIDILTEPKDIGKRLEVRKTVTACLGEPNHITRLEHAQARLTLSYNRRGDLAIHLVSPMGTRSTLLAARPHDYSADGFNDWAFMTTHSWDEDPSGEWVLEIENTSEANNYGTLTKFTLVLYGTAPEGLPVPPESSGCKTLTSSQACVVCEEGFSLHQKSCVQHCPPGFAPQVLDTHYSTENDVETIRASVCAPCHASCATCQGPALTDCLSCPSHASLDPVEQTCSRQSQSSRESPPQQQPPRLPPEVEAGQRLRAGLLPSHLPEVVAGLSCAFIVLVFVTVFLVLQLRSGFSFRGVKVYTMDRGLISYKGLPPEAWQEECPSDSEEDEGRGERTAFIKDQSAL

human cathepsin L = biological target: T2, human cathepsin L (Homo sapiens, UniProt P07711); assay: Protease selectivity, Ki on protease; format: biochemical
T2 construct: purchased Bio-Techne
T2 sequence (P07711 114-333): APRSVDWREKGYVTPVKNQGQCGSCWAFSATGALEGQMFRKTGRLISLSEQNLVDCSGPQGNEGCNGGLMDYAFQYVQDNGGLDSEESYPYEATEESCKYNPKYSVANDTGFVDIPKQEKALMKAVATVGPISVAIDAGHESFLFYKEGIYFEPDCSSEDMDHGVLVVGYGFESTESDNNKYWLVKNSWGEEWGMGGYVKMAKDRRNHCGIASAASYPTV

human thrombin = biological target: T3, human thrombin (Homo sapiens, UniProt P00734); assay: Protease selectivity, Ki on protease; format: biochemical
T3 construct: purchased MilliporeSigma

[1] = biological target: T4, Recombinant human matriptase (Homo sapiens, UniProt Q9Y5Y6); assay: Protease selectivity, Ki on recombinant protease; format: biochemical; settings: single experiments N1-N3; Figure 1D; read-out: Individual Ki, Matriptase
T4 construct: made in house
T4 sequence (Q9Y5Y6 1-855): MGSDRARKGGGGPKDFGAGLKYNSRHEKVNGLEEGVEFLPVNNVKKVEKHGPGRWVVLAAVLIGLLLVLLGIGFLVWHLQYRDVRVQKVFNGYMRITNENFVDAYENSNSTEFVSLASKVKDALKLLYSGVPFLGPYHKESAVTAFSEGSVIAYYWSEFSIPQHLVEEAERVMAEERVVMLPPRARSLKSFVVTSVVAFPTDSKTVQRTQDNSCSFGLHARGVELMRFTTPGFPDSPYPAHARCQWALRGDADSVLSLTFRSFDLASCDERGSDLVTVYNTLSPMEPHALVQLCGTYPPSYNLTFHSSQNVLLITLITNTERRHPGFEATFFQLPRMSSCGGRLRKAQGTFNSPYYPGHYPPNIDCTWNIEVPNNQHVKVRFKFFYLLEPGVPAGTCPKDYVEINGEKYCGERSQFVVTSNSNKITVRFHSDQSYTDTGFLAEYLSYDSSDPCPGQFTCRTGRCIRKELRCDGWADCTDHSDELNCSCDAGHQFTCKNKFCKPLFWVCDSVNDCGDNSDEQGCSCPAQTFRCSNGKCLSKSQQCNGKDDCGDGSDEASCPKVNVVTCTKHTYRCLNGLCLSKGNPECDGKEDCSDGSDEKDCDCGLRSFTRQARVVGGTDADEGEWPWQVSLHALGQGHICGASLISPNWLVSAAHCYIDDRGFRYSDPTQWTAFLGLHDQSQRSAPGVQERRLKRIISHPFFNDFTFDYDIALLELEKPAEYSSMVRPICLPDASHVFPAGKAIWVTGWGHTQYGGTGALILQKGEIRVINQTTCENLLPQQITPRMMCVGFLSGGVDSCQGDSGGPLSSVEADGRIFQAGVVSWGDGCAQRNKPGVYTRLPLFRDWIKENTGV

Recombinant human DESC1 = biological target: T5, Recombinant human DESC1 (Homo sapiens, UniProt Q9UL52); assay: Protease selectivity, Ki on recombinant protease; format: biochemical
T5 construct: made in house
T5 sequence (Q9UL52 1-423): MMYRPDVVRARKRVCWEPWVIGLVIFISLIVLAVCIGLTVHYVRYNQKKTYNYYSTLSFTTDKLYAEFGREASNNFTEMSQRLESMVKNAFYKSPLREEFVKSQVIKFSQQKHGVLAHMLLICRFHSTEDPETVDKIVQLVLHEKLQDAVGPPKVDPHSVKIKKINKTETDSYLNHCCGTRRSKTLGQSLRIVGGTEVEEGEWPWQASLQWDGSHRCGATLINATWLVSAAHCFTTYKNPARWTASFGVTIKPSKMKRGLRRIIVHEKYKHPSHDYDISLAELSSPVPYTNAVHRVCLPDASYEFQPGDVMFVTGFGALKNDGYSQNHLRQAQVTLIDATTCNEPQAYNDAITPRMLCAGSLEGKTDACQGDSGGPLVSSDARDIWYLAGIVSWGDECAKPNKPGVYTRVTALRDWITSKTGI

Recombinant human hepsin = biological target: T6, Recombinant human hepsin (Homo sapiens, UniProt P05981); assay: Protease selectivity, Ki on recombinant protease; format: biochemical; settings: single experiments N1-N3; Figure 1D; read-out: Individual Ki, Hepsin
T6 construct: made in house
T6 sequence (P05981 whole entry): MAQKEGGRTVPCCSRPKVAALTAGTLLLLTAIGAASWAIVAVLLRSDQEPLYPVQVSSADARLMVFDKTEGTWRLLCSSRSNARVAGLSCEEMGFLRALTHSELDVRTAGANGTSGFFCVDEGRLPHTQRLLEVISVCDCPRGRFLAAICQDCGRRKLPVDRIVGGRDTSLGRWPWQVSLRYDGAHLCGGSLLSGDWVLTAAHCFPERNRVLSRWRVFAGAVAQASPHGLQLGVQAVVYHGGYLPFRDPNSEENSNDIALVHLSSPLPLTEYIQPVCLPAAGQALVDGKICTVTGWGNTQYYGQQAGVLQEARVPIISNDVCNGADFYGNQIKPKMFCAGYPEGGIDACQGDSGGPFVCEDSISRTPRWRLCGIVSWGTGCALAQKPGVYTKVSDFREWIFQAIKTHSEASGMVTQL

Calu-3 cells = assay: Cytotoxicity CC50 in Calu-3 lung epithelial cells; format: cell-based, human; settings: single replicates
[2] = Cytotoxicity CC50 in Calu-3 lung epithelial cells; format: cell-based, human; settings: human; for viability at 24 h, 1000 µM: Log [inhibitor] -3.00; for viability at 24 h, 300 µM: Log [inhibitor] -3.52; for viability at 24 h, 100 µM: Log [inhibitor] -4.00; for viability at 24 h, 30 µM: Log [inhibitor] -4.52; for viability at 24 h, 10 µM: Log [inhibitor] -5.00; for viability at 24 h, 3 µM: Log [inhibitor] -5.52; for viability at 24 h, 0.3 µM: Log [inhibitor] -6.52; for viability at 24 h, 0.03 µM: Log [inhibitor] -7.52; for viability at 24 h, 0.003 µM: Log [inhibitor] -8.52
human TMPRSS2 = human TMPRSS2 (Homo sapiens, UniProt O15393); assay: cell-based
Sequence of human TMPRSS2 (O15393 whole entry): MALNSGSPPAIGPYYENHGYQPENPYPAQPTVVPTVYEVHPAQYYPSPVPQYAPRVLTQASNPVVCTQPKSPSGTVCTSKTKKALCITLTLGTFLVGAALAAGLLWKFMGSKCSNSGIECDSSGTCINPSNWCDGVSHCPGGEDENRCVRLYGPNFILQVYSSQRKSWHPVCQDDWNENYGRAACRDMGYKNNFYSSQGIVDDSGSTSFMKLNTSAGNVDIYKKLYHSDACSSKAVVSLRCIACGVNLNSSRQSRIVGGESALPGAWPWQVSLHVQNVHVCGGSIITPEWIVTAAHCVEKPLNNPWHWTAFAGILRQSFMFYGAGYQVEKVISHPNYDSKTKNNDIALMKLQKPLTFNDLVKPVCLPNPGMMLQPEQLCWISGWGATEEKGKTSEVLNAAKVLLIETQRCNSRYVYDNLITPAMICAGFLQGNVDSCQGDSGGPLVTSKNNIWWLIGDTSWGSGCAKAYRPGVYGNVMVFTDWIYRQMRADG

[3] = tested on: SARS-CoV-2 lineage B strain (VIDO); assay: microbe, parasite or virus in culture; format: cell-based
[4] = single experiments N1-N4, Figure 1D, read-out: Individual Ki, Cathepsin L
[5] = single experiments N1-N3, Figure 1D, read-out: Individual Ki, Desc1
[6] = Calu-3 cells, read-out: % of Viability, Average (n=2)
[7] = Calu-3 cells, single replicates, read-out: % of Viability

Which results are given for `N=C(N)NCCCCC(=O)N[C@@H](CCC(N)=O)C(=O)N[C@@H](Cc1ccccc1)C(=O)N[C@@H](CCCNC(=N)N)C(=O)c1nc2ccccc2s1` [Compound N-00130]?
Ki (Recombinant human furin; single experiments N1-N3, Figure 1D, read-out: Individual Ki, Furin): > 10 µM; Ki (human cathepsin L; [4]): > 10 µM; Ki (human thrombin; single experiments N1-N3, Figure 1D, read-out: Individual Ki, Thrombin): 7.56 µM and > 10 µM and 7.14 µM; Ki [1]: 154 pM and 95.4 pM and 153 pM; Ki (Recombinant human DESC1; [5]): 0.0164 µM and 0.0379 µM and 0.0305 µM; Ki (Recombinant human hepsin): 0.000221 µM and 0.000323 µM and 0.000606 µM

For `CS(=O)(=O)N[C@@H](CCC(N)=O)C(=O)N[C@@H](Cc1ccccc1)C(=O)N[C@@H](CCCNC(=N)N)C(=O)c1nc2ccccc2s1` [Compound N-00385], which Ki (human cathepsin L; [4]) is on record?
The Ki was 9.7 µM and 9.06 µM and 3.83 µM and 2.57 µM.

And the Ki (Recombinant human DESC1; [5])?
Its Ki is 0.0253 µM and 0.0169 µM and 0.0346 µM.

Which results are given for `CS(=O)(=O)N[C@@H](CCC(N)=O)C(=O)N[C@@H](Cc1ccccc1)C(=O)N[C@@H](CCCNC(=N)N)C(=O)c1nc2ccccc2s1` [Compound N-385]?
% of Viability (Calu-3 cells; Log [inhibitor] -2.52): 42% and 63%; % of Viability (Calu-3 cells; Log [inhibitor] -4.00): 88%; % of Viability (Calu-3 cells; Log [inhibitor] -4.52): 84%; % of Viability (Calu-3 cells; Log [inhibitor] -5.00): 99%; % of Viability (Calu-3 cells; Log [inhibitor] -6.52): 109%; % of Viability (Calu-3 cells; Log [inhibitor] -7.52): 105%; % of Viability (Calu-3 cells; Log [inhibitor] -8.52): 115%; viability at 24 h, 3000 µM ([2]; Calu-3 cells, Log [inhibitor] -2.52, read-out: % of Viability, Average (n=2)): 52.5%; viability at 24 h, 1000 µM [2, 6]: 80.5%; viability at 24 h, 1000 µM [2, 7]: 74%; viability at 24 h, 300 µM [2, 6]: 92%; viability at 24 h, 300 µM [2, 7]: 90%; viability at 24 h, 100 µM [2, 6]: 91%; viability at 24 h, 100 µM [2, 7]: 94%; viability at 24 h, 30 µM [2, 6]: 87%; viability at 24 h, 30 µM [2, 7]: 90%; viability at 24 h, 10 µM [2, 6]: 101%; viability at 24 h, 10 µM [2, 7]: 103%; viability at 24 h, 3 µM [2, 6]: 110%; viability at 24 h, 3 µM [2, 7]: 110%; viability at 24 h, 0.3 µM [2, 6]: 111%; viability at 24 h, 0.3 µM [2, 7]: 113%; viability at 24 h, 0.03 µM [2, 6]: 110%; viability at 24 h, 0.03 µM [2, 7]: 116%; viability at 24 h, 0.003 µM [2, 6]: 117%; viability at 24 h, 0.003 µM [2, 7]: 119%; CC50 at 24 h ([2]; Calu-3 cells, unit not given for CC50, read-out: CC50): 3470 µM

Which Ki (Recombinant human furin; mean ± s.d., max concentration 10 µM, read-out: Ki Furin) does the source give for `CC(=O)NC(CCC(N)=O)C(=O)NC(Cc1ccccc1)C(=O)NC(CCCNC(=N)N)C(=O)c1nc2ccccc2s1` (centres unmarked) [Compound N-0386, Ac-QFR-kbt] here?
Its Ki is greater than 10 µM.

And the Ki (human cathepsin L; mean ± s.d., max concentration 10 µM, read-out: Ki Cathepsin L)?
The Ki was 7.72 ± 0.142 µM.

And the Ki (human thrombin; mean ± s.d., max concentration 10 µM, read-out: Ki Thrombin)?
Its Ki is greater than 10 µM.

What about the “TMPRSS2 activity (%)” value (human TMPRSS2; Figure 1B, single experiments N1-N3) of the same molecule?
The value was 22.2147% and 27.837% and 33.2674%.

And the inhibition at 0.01 µM (human TMPRSS2; Vero C1008, 10 nM compound, 24 h, vs untreated/vehicle TMPRSS2-expressing Vero E6 cells, read-out: inhibition of TMPRSS2 activity (reduction of substrate proteolysis))?
The inhibition at 0.01 µM was 73%.

What about the Nucleocapsid ([3]; Figure 2a, two replicates, DMSO control about 91-94) of the same molecule?
The Nucleocapsid was 0.1229 and 1.4208.

What about the dsRNA ([3]; Figure 2a, two replicates, DMSO control about 93-95) of the same molecule?
The dsRNA was 0.2037 and 0.

What about the EC50 ([3]; Severe acute respiratory syndrome coronavirus 2, Calu-3, read-out: SARS-CoV-2 VIDO Nucleocapsid EC50 ± SE) of the same molecule?
The EC50 was 0.0023 ± 0.0017 µM.

And the inhibition at 0.1 µM ([3]; Severe acute respiratory syndrome coronavirus 2, Calu-3, read-out: inhibition of SARS-CoV-2 infection)?
The inhibition at 0.1 µM was greater than 99%.

And the “Figure 2b dose-response, Mean” value ([3]; log [C] (nM) 0.20412)?
The value was 63.391.

What about the “Figure 2b dose-response, Mean” value ([3]; log [C] (nM) 0.90309) of the same molecule?
The value was 26.1724.

And the “Figure 2b dose-response, Mean” value ([3]; log [C] (nM) 1.60206)?
The value was 7.727.

And the “Figure 2b dose-response, Mean” value ([3]; log [C] (nM) 2.30103)?
The value was 6.997.

And the “Figure 2b dose-response, Mean” value ([3]; log [C] (nM) 3)?
The value was 2.833.

What about the “Figure 2b dose-response, Mean” value ([3]; log [C] (nM) -0.49485) of the same molecule?
The value was 81.0636.

What about the “Figure 2b dose-response, Mean” value ([3]; log [C] (nM) -1.19382) of the same molecule?
The value was 95.046.

What about the Ki (Recombinant human DESC1; mean ± s.d., max concentration 10 µM, read-out: Ki DESC1) of the same molecule?
Its Ki is 0.0091 ± 0.0019 µM.

What about the CC50 at 24 h ([2]; Calu-3 lung epithelial cells, n = 2, read-out: CC50 in Calu-3 cells) of the same molecule?
Its CC50 at 24 h is 1880 µM.
